Test results published in the supplement of paper PMC12669032.

Columns and labels:
Assay in all cases: growth AUC relative to DMSO control (fraction); higher = more growth (less inhibition)
Conditions in all cases: 24 h
Eubacterium rectale = test system: Eubacterium rectale
Method: (§1)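 Validation screen: 11 independently purchased pesticides tested on 8 gut bacterial strains at 2.5–320 µM in mGAM, anaerobic, 37 °C, 24 h. Growth AUC normalised to DMSO controls, mean of 3 independent experiments.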

Clostridium difficile = test system: Clostridium difficile
Method: as §1

[1] = test system: Parabacteroides distasonis
Method: as §1

Lactobacillus gasseri = test system: Lactobacillus gasseri
Method: as §1

Escherichia coli IAI1 = test system: Escherichia coli IAI1
Method: as §1

Roseburia intestinalis = test system: Roseburia intestinalis
Method: as §1

Streptococcus salivarius = test system: Streptococcus salivarius
Method: as §1

Bacteroides uniformis = test system: Bacteroides uniformis
Method: as §1

COC(=O)N(OC)c1ccccc1COc1ccn(-c2ccc(Cl)cc2)n1 [PYRACLOSTROBIN]
growth AUC
Conditions | Bacteroides uniformis | Clostridium difficile | Escherichia coli IAI1 | Eubacterium rectale | Lactobacillus gasseri | Roseburia intestinalis | Streptococcus salivarius | [1]
2.5 µM | 1.01 | 1.03 | 1.02 | 1.17 | 1.06 | 0.955 | 1.11 | 0.922
5 µM | 0.994 | 1.01 | 1.02 | 1.12 | 1.01 | 0.923 | 1.09 | 0.798
10 µM | 0.955 | 1 | 1.01 | 1.18 | 0.997 | 0.957 | 1.07 | 0.705
20 µM | 0.988 | 1.01 | 1.01 | 1.16 | 0.955 | 0.859 | 1.12 | 0.626
40 µM | 0.926 | 1.03 | 1.01 | 1.18 | 0.989 | 0.975 | 1.08 | 0.401
80 µM | 0.914 | 1.04 | 0.999 | 1.13 | 0.914 | 0.919 | 1.02 | 0.26

C=CCOC(Cn1ccnc1)c1ccc(Cl)cc1Cl.O=S(=O)(O)O (stereo unspecified) [IMAZALIL SULFATE]
growth AUC
Conditions | Bacteroides uniformis | Clostridium difficile | Escherichia coli IAI1 | Eubacterium rectale | Lactobacillus gasseri | Roseburia intestinalis | Streptococcus salivarius | [1]
2.5 µM | 1.04 | 1.02 | 0.998 | 0.622 | 1.07 | 0.943 | 1.05 | 1.02
5 µM | 1 | 0.962 | 0.975 | 0.322 | 0.958 | 0.906 | 1.01 | 0.948
10 µM | 1.01 | 0.944 | 0.956 | 0.0607 | 0.976 | 0.861 | 0.963 | 0.856
20 µM | 0.971 | 1.01 | 0.96 | 0.0382 | 0.92 | 0.459 | 0.978 | 0.922
40 µM | 0.976 | 0.915 | 0.942 | 0.0278 | 0.946 | 0.0225 | 0.961 | 0.732
80 µM | 0.928 | 0.797 | 0.961 | 0.014 | 0.881 | 0.0276 | 0.944 | 0.587
160 µM | 0.836 | 0.515 | 0.879 | 0.0363 | 0.788 | 0.0196 | 0.999 | 0.145
320 µM | 0.413 | 0.219 | 0.776 | 0.0159 | 0.414 | 0.0118 | 0.705 | 0.0186

O=C(Oc1ccccc1)n1c(C(F)(F)F)nc2cc(Cl)c(Cl)cc21 [FENAZAFLOR]
growth AUC
Conditions | Bacteroides uniformis | Clostridium difficile | Escherichia coli IAI1 | Eubacterium rectale | Lactobacillus gasseri | Roseburia intestinalis | Streptococcus salivarius | [1]
2.5 µM | 0.972 | 0.824 | 0.97 | 0.987 | 1.06 | 1.05 | 1.07 | 0.939
5 µM | 0.914 | 0.854 | 0.837 | 0.875 | 0.99 | 0.968 | 0.876 | 0.6
10 µM | 0.686 | 0.595 | 0.679 | 0.642 | 0.837 | 0.887 | 0.658 | 0.314
20 µM | 0.492 | 0.705 | 0.617 | 0.407 | 0.448 | 0.582 | 0.513 | 0.174
40 µM | 0.171 | 0.00756 | 0.383 | 0.255 | 0.168 | 0.22 | 0.0266 | 0.0387
80 µM | 0.00285 | 0.0273 | 0.00144 | 0.106 | 0.0839 | 0.0682 | 0.0113 | 0.0173
160 µM | 0.00332 | 0.0114 | 0.00384 | 0.0493 | 0.0514 | 0.0676 | 0.00976 | 0.0144
320 µM | 0.0184 | 0.0253 | 0.0222 | 0.106 | 0.0326 | 0.0375 | 0.0373 | 0.0614
